≈ marks a conversion by molar mass, not a printed value.
What was measured:
Assay type in all cases: functional
[1] = test system: Candida albicans; assay: Antifungal activity against Candida albicans ATCC SC5314 assessed as fungal growth inhibition by CLSI based serial microbroth dilution method
[2] = test system: Candida albicans; assay: Antifungal activity against Candida albicans CPCC400616 assessed as fungal growth inhibition by CLSI based serial microbroth dilution method
[3] = test system: Candida tropicalis; assay: Antifungal activity against Candida tropicalis CGMCC 2.3739 assessed as fungal growth inhibition by CLSI based serial microbroth dilution method
[4] = test system: Cryptococcus neoformans; assay: Antifungal activity against Cryptococcus neoformans CGMCC 2.3161 assessed as fungal growth inhibition by CLSI based serial microbroth dilution method
[5] = test system: Candida parapsilosis; assay: Antifungal activity against Candida parapsilosis GIM 2.190 assessed as fungal growth inhibition by CLSI based serial microbroth dilution method; conditions: Lodderomyces parapsilosis
[6] = test system: Nakaseomyces glabratus; assay: Antifungal activity against Candida glabrata clinical isolate assessed as fungal growth inhibition by CLSI based serial microbroth dilution method
[7] = test system: Pichia kudriavzevii; assay: Antifungal activity against Candida krusei GIM 2.1 assessed as fungal growth inhibition by CLSI based serial microbroth dilution method
[8] = test system: Aspergillus fumigatus; assay: Antifungal activity against Aspergillus fumigatus CGMCC 3.7795 assessed as fungal growth inhibition by CLSI based serial microbroth dilution method
[9] = test system: Candida albicans; assay: Antifungal activity against FLC and ITC-resistant Candida albicans 17 assessed as fungal growth inhibition by CLSI based serial microbroth dilution method
[10] = test system: Candida albicans; assay: Antifungal activity against FLC-resistant Candida albicans CaR assessed as fungal growth inhibition by CLSI based serial microbroth dilution method
[11] = test system: Candida albicans; assay: Antifungal activity against FLC-resistant Candida albicans 901 assessed as fungal growth inhibition by CLSI based serial microbroth dilution method
[12] = test system: Candida albicans; assay: Antifungal activity against FLC-resistant Candida albicans 904 assessed as fungal growth inhibition by CLSI based serial microbroth dilution method
[13] = test system: Candida albicans; assay: Antifungal activity against FLC-resistant Candida albicans 632 assessed as fungal growth inhibition by CLSI based serial microbroth dilution method
[14] = test system: Candida albicans; assay: Antifungal activity against FLC-resistant Candida albicans 100 assessed as fungal growth inhibition by CLSI based serial microbroth dilution method
[15] = test system: Candida albicans; assay: Antifungal activity against FLC-resistant Candida albicans 103 assessed as fungal growth inhibition by CLSI based serial microbroth dilution method
[16] = test system: Candida albicans; assay: Antifungal activity against FLC-resistant Candida albicans 311 assessed as fungal growth inhibition by CLSI based serial microbroth dilution method

SMILES	MIC [1]	MIC [2]	MIC [3]	MIC [4]	MIC [5]	MIC [6]	MIC [7]	MIC [8]	MIC [9]	MIC [10]	MIC [11]	MIC [12]	MIC [13]	MIC [14]	MIC [15]	MIC [16]
Fc1cccc(CC2(Cn3ccnc3)COC(c3ccc(-c4ccsc4)cc3)=N2)c1 (centres undefined)	> 64 mg/L	> 64 mg/L	> 64 mg/L	> 64 mg/L	> 64 mg/L	> 64 mg/L	1 mg/L (≈ 2.4 µM)	> 64 mg/L								
FC(F)(F)Oc1ccc(CC2(Cn3ccnc3)COC(c3ccc(-c4ccsc4)cc3)=N2)cc1 (centres undefined)	> 64 mg/L	> 64 mg/L	> 64 mg/L	> 64 mg/L	> 64 mg/L	> 64 mg/L	> 64 mg/L	> 64 mg/L								
Fc1ccc(CC2(Cn3ccnc3)COC(c3ccc(-c4ccsc4)cc3)=N2)cc1F (centres undefined)	> 64 mg/L	> 64 mg/L	> 64 mg/L	> 64 mg/L	> 64 mg/L	> 64 mg/L	> 64 mg/L	> 64 mg/L								
Cc1ccc(CC2(Cn3ccnc3)COC(c3ccc(-c4ccsc4)cc3)=N2)cc1 (centres undefined)	> 64 mg/L	> 64 mg/L	> 64 mg/L	> 64 mg/L	> 64 mg/L	> 64 mg/L	> 64 mg/L	> 64 mg/L								
Brc1ccc(C2=NC(Cc3ccccc3)(Cn3ccnc3)CO2)cc1 (centres undefined)	> 64 mg/L	> 64 mg/L	> 64 mg/L	4 mg/L (≈ 10.1 µM)	> 64 mg/L	> 64 mg/L	> 64 mg/L	> 64 mg/L								
c1ccc(COc2ccc(C3=NC(Cc4ccccc4)(Cn4ccnc4)CO3)cc2)cc1 (centres undefined)	> 64 mg/L	> 64 mg/L	> 64 mg/L	> 64 mg/L	> 64 mg/L	> 64 mg/L	> 64 mg/L	> 64 mg/L								
FC(F)(F)c1ccccc1CC1(Cn2ccnc2)COC(c2ccc(-c3ccsc3)cc2)=N1 (centres undefined)	0.125 mg/L (≈ 0.267 µM)	8 mg/L (≈ 17.1 µM)	16 mg/L (≈ 34.2 µM)	> 64 mg/L	> 64 mg/L	16 mg/L (≈ 34.2 µM)	> 64 mg/L	32 mg/L (≈ 68.4 µM)								
Clc1ccc(CC2(Cn3ccnc3)COC(c3ccc(-c4ccsc4)cc3)=N2)c(Cl)c1 (centres undefined)	> 64 mg/L	> 64 mg/L	> 64 mg/L	> 64 mg/L	> 64 mg/L	> 64 mg/L	> 64 mg/L	> 64 mg/L								
CC(C)(C)c1ccc(CC2(Cn3ccnc3)COC(c3ccc(-c4ccsc4)cc3)=N2)cc1 (centres undefined)	> 64 mg/L	> 64 mg/L	> 64 mg/L	> 64 mg/L	> 64 mg/L	> 64 mg/L	> 64 mg/L	> 64 mg/L								
c1ccc(CC2(Cn3ccnc3)COC(c3cc(-c4ccccc4)on3)=N2)cc1 (centres undefined)	> 64 mg/L	> 64 mg/L	> 64 mg/L	4 mg/L (≈ 10.4 µM)	> 64 mg/L	> 64 mg/L	> 64 mg/L	2 mg/L (≈ 5.2 µM)								
FC(F)(F)c1cccc(CC2(Cn3ccnc3)COC(c3ccc(-c4ccsc4)cc3)=N2)c1 (centres undefined)	> 64 mg/L	> 64 mg/L	> 64 mg/L	> 64 mg/L	> 64 mg/L	> 64 mg/L	> 64 mg/L	> 64 mg/L								
c1ccc(CC2(Cn3ccnc3)COC(c3noc4c3CCc3ccccc3-4)=N2)cc1 (centres undefined)	16 mg/L (≈ 39 µM)	32 mg/L (≈ 78 µM)	32 mg/L (≈ 78 µM)	> 64 mg/L	> 64 mg/L	16 mg/L (≈ 39 µM)	> 64 mg/L	> 64 mg/L								
c1ccc(CC2(Cn3ccnc3)COC(c3ccc4c(c3)OCO4)=N2)cc1 (centres undefined)	> 64 mg/L	> 64 mg/L	> 64 mg/L	> 64 mg/L	> 64 mg/L	> 64 mg/L	> 64 mg/L	> 64 mg/L								
c1ccc(CC2(Cn3ccnc3)COC(c3ccc(-c4cncnc4)cc3)=N2)cc1 (centres undefined)	> 64 mg/L	> 64 mg/L	> 64 mg/L	> 64 mg/L	> 64 mg/L	> 64 mg/L	> 64 mg/L	> 64 mg/L								
Clc1ccccc1CC1(Cn2ccnc2)COC(c2ccc(-c3ccsc3)cc2)=N1 (centres undefined)	0.125 mg/L (≈ 0.288 µM)	8 mg/L (≈ 18.4 µM)	0.5 mg/L (≈ 1.15 µM)	> 64 mg/L	1 mg/L (≈ 2.3 µM)	16 mg/L (≈ 36.9 µM)	> 64 mg/L	16 mg/L (≈ 36.9 µM)								
Fc1cccc(F)c1CC1(Cn2cnnn2)COC(c2ccc(-c3ccsc3)cc2)=N1 (centres undefined)	16 mg/L (≈ 36.6 µM)	16 mg/L (≈ 36.6 µM)	> 64 mg/L	> 64 mg/L	> 64 mg/L	> 64 mg/L	> 64 mg/L	> 64 mg/L								

SMILES	MIC [1]	MIC [2]	MIC [3]	MIC [4]	MIC [5]	MIC [6]	MIC [7]	MIC [8]	MIC [9]	MIC [10]	MIC [11]	MIC [12]	MIC [13]	MIC [14]	MIC [15]	MIC [16]
Fc1ccccc1CC1(Cn2ccnc2)COC(c2ccc(-c3ccsc3)cc2)=N1 (centres undefined)	0.125 mg/L (≈ 0.299 µM)	0.5 mg/L (≈ 1.2 µM)	0.125 mg/L (≈ 0.299 µM)	16 mg/L (≈ 38.3 µM)	0.5 mg/L (≈ 1.2 µM)	16 mg/L (≈ 38.3 µM)	1 mg/L (≈ 2.4 µM)	32 mg/L (≈ 76.6 µM)	8 mg/L (≈ 19.2 µM)	32 mg/L (≈ 76.6 µM)	2 mg/L (≈ 4.79 µM)	2 mg/L (≈ 4.79 µM)	8 mg/L (≈ 19.2 µM)	2 mg/L (≈ 4.79 µM)	1 mg/L (≈ 2.4 µM)	4 mg/L (≈ 9.58 µM)
c1ccc(CC2(Cn3ccnc3)COC(c3ccc(-c4ccoc4)cc3)=N2)cc1 (centres undefined)	0.5 mg/L (≈ 1.3 µM)	> 64 mg/L	> 64 mg/L	4 mg/L (≈ 10.4 µM)	> 64 mg/L	> 64 mg/L	> 64 mg/L	> 64 mg/L								
c1ccc(CC2(Cn3ccnc3)COC(c3cc4ccccc4o3)=N2)cc1 (centres undefined)	> 64 mg/L	> 64 mg/L	8 mg/L (≈ 22.4 µM)	> 64 mg/L	> 64 mg/L	> 64 mg/L	> 64 mg/L	> 64 mg/L								
Clc1cccc(CC2(Cn3ccnc3)COC(c3ccc(-c4ccsc4)cc3)=N2)c1 (centres undefined)	> 64 mg/L	> 64 mg/L	> 64 mg/L	> 64 mg/L	> 64 mg/L	> 64 mg/L	> 64 mg/L	> 64 mg/L								
Fc1cccc(F)c1CC1(Cn2ccnn2)COC(c2ccc(-c3ccsc3)cc2)=N1 (centres undefined)	16 mg/L (≈ 36.7 µM)	16 mg/L (≈ 36.7 µM)	> 64 mg/L	> 64 mg/L	> 64 mg/L	> 64 mg/L	> 64 mg/L	> 64 mg/L								
Clc1ccc(CC2(Cn3ccnc3)COC(c3ccc(-c4ccsc4)cc3)=N2)cc1 (centres undefined)	> 64 mg/L	> 64 mg/L	> 64 mg/L	> 64 mg/L	> 64 mg/L	> 64 mg/L	> 64 mg/L	> 64 mg/L								
c1ccc(CC2(Cn3ccnc3)COC(c3ccc(-c4ccsc4)cc3)=N2)cc1 (centres undefined)	0.5 mg/L (≈ 1.25 µM)	0.25 mg/L (≈ 0.626 µM)	0.25 mg/L (≈ 0.626 µM)	8 mg/L (≈ 20 µM)	0.5 mg/L (≈ 1.25 µM)	> 64 mg/L	> 64 mg/L	16 mg/L (≈ 40 µM)	4 mg/L (≈ 10 µM)	32 mg/L (≈ 80.1 µM)	4 mg/L (≈ 10 µM)	2 mg/L (≈ 5.01 µM)	16 mg/L (≈ 40 µM)	2 mg/L (≈ 5.01 µM)	2 mg/L (≈ 5.01 µM)	4 mg/L (≈ 10 µM)
Cc1cccc(CC2(Cn3ccnc3)COC(c3ccc(-c4ccsc4)cc3)=N2)c1 (centres undefined)	> 64 mg/L	> 64 mg/L	> 64 mg/L	> 64 mg/L	> 64 mg/L	> 64 mg/L	> 64 mg/L	> 64 mg/L								
FC(F)(F)c1ccc(CC2(Cn3ccnc3)COC(c3ccc(-c4ccsc4)cc3)=N2)cc1 (centres undefined)	> 64 mg/L	> 64 mg/L	> 64 mg/L	> 64 mg/L	> 64 mg/L	> 64 mg/L	> 64 mg/L	> 64 mg/L								
c1ccc(CC2(Cn3ccnc3)COC(c3ccc4ccccc4c3)=N2)cc1 (centres undefined)	> 64 mg/L	> 64 mg/L	> 64 mg/L	4 mg/L (≈ 10.9 µM)	> 64 mg/L	> 64 mg/L	> 64 mg/L	> 64 mg/L								
Fc1ccc(CC2(Cn3ccnc3)COC(c3ccc(-c4ccsc4)cc3)=N2)c(F)c1 (centres undefined)	> 64 mg/L	> 64 mg/L	> 64 mg/L	> 64 mg/L	> 64 mg/L	> 64 mg/L	2 mg/L (≈ 4.59 µM)	> 64 mg/L								
CCC(C)n1ncn(-c2ccc(N3CCN(c4ccc(OCC5COC(Cn6cncn6)(c6ccc(Cl)cc6Cl)O5)cc4)CC3)cc2)c1=O (centres undefined) [ITRACONAZOLE]	0.03 mg/L (≈ 0.0425 µM)	< 0.03 mg/L	< 0.03 mg/L	0.125 mg/L (≈ 0.177 µM)	0.125 mg/L (≈ 0.177 µM)	0.125 mg/L (≈ 0.177 µM)	0.125 mg/L (≈ 0.177 µM)	0.125 mg/L (≈ 0.177 µM)								
c1ccc(CC2(Cn3ccnc3)COC(c3cc4ccccc4s3)=N2)cc1 (centres undefined)	> 64 mg/L	> 64 mg/L	> 64 mg/L	2 mg/L (≈ 5.36 µM)	> 64 mg/L	> 64 mg/L	> 64 mg/L	> 64 mg/L								
CC(C)c1ccc(CC2(Cn3ccnc3)COC(c3ccc(-c4ccsc4)cc3)=N2)cc1 (centres undefined)	> 64 mg/L	> 64 mg/L	> 64 mg/L	> 64 mg/L	> 64 mg/L	> 64 mg/L	> 64 mg/L	> 64 mg/L								
Fc1cc(F)cc(CC2(Cn3ccnc3)COC(c3ccc(-c4ccsc4)cc3)=N2)c1 (centres undefined)	> 64 mg/L	> 64 mg/L	> 64 mg/L	> 64 mg/L	> 64 mg/L	> 64 mg/L	> 64 mg/L	> 64 mg/L								
